For this experiment, the system named is Solid Ehrlich Carcinoma (SEC). Description: In vivo anti-tumor activity in solid Ehrlich carcinoma (SEC)-bearing mice (tumor mass, volume, TIR%, hematology, histopathology). The protocol: All experimental protocols were approved by the Research Ethics Committee and Institutional Animal Care and Use Committee, Faculty of Science, Suez Canal University with the ethical code (SCU-Sci-REC439/2025), and all methods were carried out according to the European Union guidelines and in accordance with ARRIVE guidelines. All animals were anesthetized using a combination of Xylazine 10 mg/kg- Ketamine 100 mg/kg of body weight, respectively, prior sacrifice via cervical decapitation.
In all graphs, treatments were administrated intraperitoneal (IP) with 6 mg/Kg B.Wt. for two weeks, day after day.
SIT, FLU and TNZ were tested using the five dose sigmoidal curves to determine the IC50 values. They were tested for the VEGFR2 inhibition using VEGFR2 Kinase Inhibition Assay Kit Catalog # 40325 BPS Bioscience, San Diego, CA. […] At the end of these experiment, anti-tumor potentiality was recorded using tumor weight (mg), tumor volume (mm^3), and the tumor inhibition ratio (TIR%). Hematological parameters of Hemoglobin (Hb, g/dL), RBC’s count (10^6/μL), and WBC’s count (10^3/μL) were investigated, along with histopathological and immunohistochemical staining of the VEGR2 protein.
Adult female Swiss albino mice purchased from Faculty of Pharmacy, Suez Canal University, Ismailia, Egypt, with an average body weight of (18-23) g was used. Mice were housed under constant conditions of 12 h light/dark cycle in a […], with free access to standard laboratory mice food and water. All procedures related to care and maintenance of the animals were performed according to the international guiding principles for animal research and approved by the Faculty of Pharmacy, Suez Canal University bioethics and animal ethics committee.
Solid Ehrlich carcinoma (SEC) was got from the National Cancer Institute (Cairo University, Egypt). The tumor cell line proliferated in mice through serial intraperitoneal (I.P.) transplantation of a volume of 0.2 mL physiological saline containing 1×10^6 viable cells for 24 h. SEC cells were collected 7 days after I.P. implantation. The harvested cells were diluted with saline to obtain a concentration of 5×10^6 viable SEC cells/mL. A volume of 0.2 mL saline contains 1×10^6 SEC cells that were I.P. implanted into each normal mouse. SEC cells (1×10^6 tumor cells/mouse) were implanted subcutaneously into the right thigh of the hind limb.
The experimental animals were randomly divided into four groups. Group 1 served as the normal saline control. Group 2 served as the SEC control (1×10^6 cells/mouse). Group 3 served as the ITR-treated group (6 mg/kg B.Wt., I.P.). […] Body weight and survival were recorded daily until the 24th day in both treated and control groups. At the end of the experiment, anesthetized animals were then sacrificed for evaluation of the antitumor activity and histopathological examination.
It includes tumor volume, weight, and tumor inhibition ratio (TIR%). Time interval measurements of tumor volume using a digital Vernier caliper (Tricle Brand, Shanghai, China). Measure tumor length and width using a clipper and then calculate tumor volume using formulations V = (L x W x W)/2, where V is tumor volume, W is tumor width, L is tumor length. While TIR% was calculated according to the following equation Tumor volume Control-Tumor volume (treated)Tumor volume (control)x 100.
Specimens of liver-sacrificed mice were fixed in 10% saline formalin. The fixed liver specimens were Dehydrated in ascending series of ethyl alcohol and embedded in paraffin.

As to `CCC(C)n1ncn(-c2ccc(N3CCN(c4ccc(OCC5COC(Cn6cncn6)(c6ccc(Cl)cc6Cl)O5)cc4)CC3)cc2)c1=O` (stereo not shown) [Itraconazole, itraconazole], where the note is “6 mg/Kg B.Wt. IP, two weeks, day after day, SEC control 469 mg”, the solid tumor mass is 237 mg. Further, where the note is “6 mg/Kg B.Wt. IP, two weeks, day after day, SEC control 420 mm^3”, the tumor volume came to 221 mm^3. Further, the “Tumor inhibition ratio (TIR%)” value (6 mg/Kg B.Wt. IP, two weeks, day after day, TIR% = C − T/C × 100) is on record as 47.4%. The “WBC's count” value (6 mg/Kg IP, normal 5, SEC control 9.2) was 6.7 10^3/µL. The “RBC's count” value (6 mg/Kg IP, normal 6.9, SEC control 3.1) is given as 5.1 10^6/µL. For the setting “6 mg/Kg IP, normal 11.6, SEC control 4.6”, the Hemoglobin level is reported as 6.8 g/dL. Moreover, the “Tumor cell density (histopathology of SEC mass)” value (isolated tumor mass, SEC control 2.2 cm^2) was found to be 1.2 cm^2.

The values above are taken from PMC12699035, “Exploring market-approved azoles as potential breast cancer therapeutics targeting the VEGFR-2 biotarget” (Scientific Reports, 2025).
